These results are taken from PubChem BioAssay (NCI).

Structures are written as SMILES.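 Method: 48-hour compound exposure of cells in 96-well plates, five concentrations, linear interpolation of endpoints. GI50: concentration for 50% inhibition of growth. At the TGI there is no net growth.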 Bounds are passed on as bounds.

Among the test systems are SW-620 colon; SR leukemia; HOP-62 NSCLC; OVCAR-5 ovarian; SNB-75 CNS; SK-MEL-28 melanoma; MDA-MB-231 breast; U251 CNS; A549 NSCLC; EKVX NSCLC.
Holding throughout (assay): NCI-60 cell line screen, 48 h

With `CCN(CC)c1cc(/C=C/c2ccc(OC)c(OC)c2)nc2cc(F)c(F)cc12`, the GI50 with SW-620 colon was over 100 µM; in the assay on SR leukemia, 3.15 µM; with HOP-62 NSCLC, 2.08 µM; in the assay with OVCAR-5 ovarian, 20.3 µM; with SNB-75 CNS, 1.39 µM; with SK-MEL-28 melanoma it was 14.9 µM. Also, the GI50 is 2.3 µM in the assay on MDA-MB-231 breast, 2.18 µM in the assay with U251 CNS and 30 µM in the assay with A549 NSCLC. Moreover, the TGI with SW-620 colon is over 100 µM; with SR leukemia it was 12.3 µM; with HOP-62 NSCLC it was 5.44 µM; in the assay on OVCAR-5 ovarian, over 100 µM; with SNB-75 CNS, 2.89 µM; in the assay on SK-MEL-28 melanoma it was over 100 µM. The TGI in the assay on MDA-MB-231 breast was 7.47 µM; with U251 CNS, 4.98 µM; in the assay with A549 NSCLC it was over 100 µM.

For the compound `COc1ccc(Nn2c(SCC(=O)Nc3nc(-c4ccc(Cl)cc4)cs3)nc(C)c2C)cc1`, the GI50 in the assay on SW-620 colon was 4.78 µM; with SR leukemia it was 7.02 µM; with OVCAR-5 ovarian it was over 100 µM; in the assay on SNB-75 CNS, 4.8 µM; in the assay on SK-MEL-28 melanoma, 18 µM; with MDA-MB-231 breast, 8.37 µM. Further, the GI50 in the assay on U251 CNS is 4.03 µM; with A549 NSCLC, 3.32 µM; in the assay with EKVX NSCLC, 1.92 µM. For the same compound, the TGI in the assay with SW-620 colon, with SR leukemia, with OVCAR-5 ovarian, in the assay with SNB-75 CNS, in the assay on SK-MEL-28 melanoma and in the assay on MDA-MB-231 breast was over 100 µM each time. In addition, the TGI in the assay on U251 CNS, in the assay with A549 NSCLC and in the assay with EKVX NSCLC was over 100 µM in each case.

`COc1ccc2oc3c4c2c1CCC4CCC3=O` (stereo unspecified): the TGI in the assay with SW-620 colon, with SR leukemia, with HOP-62 NSCLC, in the assay with OVCAR-5 ovarian, in the assay with SNB-75 CNS and in the assay with SK-MEL-28 melanoma was over 100 µM each time. Also, the TGI in the assay with U251 CNS, in the assay with A549 NSCLC and in the assay with EKVX NSCLC was over 100 µM in each case.

For the compound `N/N=C1\C(=O)N(C2CCCCC2)C(=O)C1C(=O)NC1CCCCC1` (stereo unspecified), the TGI in the assay with SW-620 colon, in the assay with SR leukemia, with HOP-62 NSCLC, in the assay on OVCAR-5 ovarian, in the assay with SNB-75 CNS and with SK-MEL-28 melanoma was over 100 µM throughout. Also, the TGI in the assay on U251 CNS, with A549 NSCLC and with EKVX NSCLC was over 100 µM each time.

With `CC1=CC(=O)CCC2(C)C1CC[C@@H]2OC=O` (stereo partly specified), the TGI in the assay on SW-620 colon, in the assay with SR leukemia, in the assay on HOP-62 NSCLC, with OVCAR-5 ovarian, in the assay on SNB-75 CNS and in the assay on SK-MEL-28 melanoma was over 100 µM in each case. Moreover, the TGI with U251 CNS, in the assay with A549 NSCLC and with EKVX NSCLC was over 100 µM in each case.

Regarding `Cc1cc2c(=O)n(-c3ccc(F)cc3)c(C)nc2c(C(=O)O)c1C`, the TGI in the assay with SW-620 colon, with SR leukemia, in the assay with HOP-62 NSCLC, in the assay with OVCAR-5 ovarian, with SNB-75 CNS and in the assay with SK-MEL-28 melanoma was over 100 µM each time. Further, the TGI with U251 CNS, with A549 NSCLC and in the assay with EKVX NSCLC was over 100 µM each time.

In the case of `Cn1c2c(c3ccccc31)C1CCCCC1C1C(=O)NC(=O)C21` (stereo unspecified), the TGI is over 100 µM in the assay on SW-620 colon; over 100 µM with SR leukemia; over 100 µM in the assay on OVCAR-5 ovarian; 71.3 µM in the assay with SNB-75 CNS; over 100 µM in the assay on SK-MEL-28 melanoma; over 100 µM in the assay on U251 CNS. Also, the TGI with A549 NSCLC and in the assay on EKVX NSCLC was over 100 µM in each case.

Consider `COc1cc2c(cc1OCCOS(C)(=O)=O)N=C[C@@H]1CCCN1C2=O`, for which the GI50 with SW-620 colon is 14.6 µM; in the assay on SR leukemia, 11.1 µM; with MDA-MB-231 breast, 16.5 µM; in the assay with U251 CNS, 17.1 µM. Moreover, the TGI in the assay with SW-620 colon is 38.4 µM; in the assay with SR leukemia, 32.9 µM; in the assay on SNB-75 CNS, over 100 µM; in the assay on SK-MEL-28 melanoma, 61.5 µM; in the assay with MDA-MB-231 breast, 39.3 µM; in the assay on U251 CNS it was 31.7 µM. Moreover, the TGI in the assay with A549 NSCLC and in the assay on EKVX NSCLC was over 100 µM in each case.

As for `CCOC(=O)C(=O)Nc1c(F)cc(F)cc1Br`, the TGI in the assay on SW-620 colon, with SR leukemia, in the assay on HOP-62 NSCLC, in the assay with OVCAR-5 ovarian, with SNB-75 CNS and in the assay on SK-MEL-28 melanoma was over 100 µM each time. In addition, the TGI in the assay with U251 CNS, with A549 NSCLC and with EKVX NSCLC was over 100 µM throughout.

On to `CCC(C)n1cc(C)c2c(C(=O)NCc3c(C)cc(C)[nH]c3=O)cc(Br)cc21` (stereo unspecified), for which the GI50 was 36.4 µM in the assay with SW-620 colon; 32.9 µM in the assay on SR leukemia; 65.2 µM in the assay with HOP-62 NSCLC; over 100 µM in the assay on OVCAR-5 ovarian; 43.5 µM with SNB-75 CNS; 72.5 µM with SK-MEL-28 melanoma. The GI50 was 45 µM in the assay on MDA-MB-231 breast, 62.8 µM in the assay on U251 CNS and 39.7 µM with A549 NSCLC. For the same compound, the TGI in the assay on SW-620 colon, in the assay on SR leukemia, in the assay with HOP-62 NSCLC, in the assay with OVCAR-5 ovarian, with SNB-75 CNS and with SK-MEL-28 melanoma was over 100 µM in each case. For the same compound, the TGI in the assay with MDA-MB-231 breast, in the assay on U251 CNS and in the assay with A549 NSCLC was over 100 µM in each case.

With `C[C@]12CCC[C@H](Cl)C1(O)C[C@H](C(=O)O)CC2` (stereo partly specified), the TGI in the assay with SW-620 colon, in the assay with SR leukemia, with HOP-62 NSCLC, in the assay on OVCAR-5 ovarian, with SNB-75 CNS and in the assay with SK-MEL-28 melanoma was over 100 µM throughout. The TGI in the assay on U251 CNS, in the assay with A549 NSCLC and in the assay with EKVX NSCLC was over 100 µM throughout.

As for `COC1(OC)CC2C=C(S(=O)(=O)c3ccccc3)C1N(Cc1ccccc1)C2=O` (stereo unspecified), the TGI in the assay on SW-620 colon was 76.8 µM; with SR leukemia it was over 100 µM; with HOP-62 NSCLC, over 100 µM; in the assay on SNB-75 CNS it was over 100 µM; with SK-MEL-28 melanoma it was over 100 µM; in the assay with U251 CNS it was over 100 µM. Also, the TGI with A549 NSCLC and with EKVX NSCLC was over 100 µM throughout.
